“Also recorded” adds a separate entry of the source.
Tests used:
TKPTS cells = test: In-vitro hypoxia and re-oxygenation of TKPTS cells, Annexin V/PI flow cytometry; assay type: cell-based, mouse; details: 50 μM hepcidin for 24 hours, 1% hypoxia 6 hours, 6 hours re-oxygenation; p<0.005
Procedure: A mouse proximal tubule cell line (TKPTS cells, kindly provided by Dr. E. Bello-Reuss, University of Texas Medical Branch, Galveston, Tex.) was used in these studies. The cells were cultured in advanced DMEM/F12 medium supplemented with glutamine, 7.5% FBS and antibiotics. Cells were grown to 80% confluence and maintained at 37° C. in 5% CO2. All experiments were performed in serum free DMEM/F12 medium for a maximum of 24 hours.
TKPTS cells were subjected to hypoxia using a hypoxic chamber (Stemcell Technologies) for 6 hrs (5% CO2, 1% O2, and 94% N2) followed by re-oxygenation for 6 hrs (5% CO2, 21% 02, and 74% N2). Three culture conditions were set up: 1. Normoxia (which served as the base line control); 2. Hypoxia; and 3. Cells pretreated with 50 μM hepcidin and subjected to hypoxia. Experiments were carried out in serum free advanced DMEM/F12 medium. At the end of re-oxygenation, cells were stained with Annexin V/PI and extent of apoptosis was determined using flow cytometry.
To investigate if hepcidin has a direct anti-apoptotic effect on renal tubular epithelial cells, we subjected murine proximal renal tubular cells (TKPTS) to hypoxia-reoxygenation injury in vitro (34). TKPTS cells were first treated with or without 50 μM hepcidin for 24 hours in 5% serum containing medium. After transferring to serum free medium, the cells were then cultured in 1% hypoxia for 6 hours. […]

C57BL/6 mice = test: Renal IRI in WT mice: 4-HNE immunohistochemistry (oxidative stress); assay type: in vivo; details: hepcidin-treated vs untreated IRI mice, FIG. 4a
Procedure: All experiments were performed in accordance with the National Institutes of Health and Institutional Animal Care and Use Guidelines. The Animal Care and Use Committee of the University of Virginia approved all procedures and protocols. C57BL/6 mice from the Jackson Laboratory and hepcidin knockout mice (HAMP−/−), a kind gift from Dr Cindy Roy (John Hopkins University) were used in this study. All experiments were performed on 8-10 weeks old male mice. Kidney ischemia-reperfusion surgery was performed as previously reported (44). The core temperature of the mice was maintained between 34° C. and 36° C. using a heating pad. After anesthetizing the mice (ketamine, 12 mg/ml; atropine, 0.48 mg/ml; xylazine, 24 mg/ml; […] mixture administered per 20 g body weight), bilateral flank incisions were made, both renal pedicles were exposed, and cross-clamped for 26 minutes (severe I/R injury) or 24 minutes (mild I/R injury). After the determined ischemia, clamps were removed, and kidneys were allowed to reperfuse for 24 hours. Ambient postoperative air temperature was maintained between 30° C. and 32° C. until mice had fully recovered. […]
Kidney sections were embedded in paraffin, 3 μm sectioned, and stained for 4 Hydroxynonenal (4-HNE) using standard protocols. […] Sections were washed 3 times in NaPO4 buffer, and then incubated in ABC ready-to-use reagent (Vector Labs) for 30 minutes. […]

[1] = test system: hepcidin knockout mice (HAMP−/−); test: Mild renal IRI in HAMP-/- mice: serum iron and tissue non-heme iron; assay type: in vivo; details: for serum iron / liver non-heme iron content: HAMP-/- hepcidin-IRI vs untreated IRI p<0.005, vs sham p<0.0005; for serum iron: FIG. 6e; for liver non-heme iron content: FIG. 6f
Procedure: (§1) All experiments were performed in accordance with the National Institutes of Health and Institutional Animal Care and Use Guidelines. The Animal Care and Use Committee of the University of Virginia approved all procedures and protocols. C57BL/6 mice from the Jackson Laboratory and hepcidin knockout mice (HAMP−/−), a kind gift from Dr Cindy Roy (John Hopkins University) were used in this study. All experiments were performed on 8-10 weeks old male mice. Kidney ischemia-reperfusion surgery was performed as previously reported (44). The core temperature of the mice was maintained between 34° C. and 36° C. using a heating pad. After anesthetizing the mice (ketamine, 12 mg/ml; atropine, 0.48 mg/ml; xylazine, 24 mg/ml; […] mixture administered per 20 g body weight), bilateral flank incisions were made, both renal pedicles were exposed, and cross-clamped for 26 minutes (severe I/R injury) or 24 minutes (mild I/R injury). After the determined ischemia, clamps were removed, and kidneys were allowed to reperfuse for 24 hours. Ambient postoperative air temperature was maintained between 30° C. and 32° C. until mice had fully recovered. Sham-operated animals underwent bilateral flank incisions without clamping of renal pedicles. Twenty-four hours later, mice were euthanized, and tissues were harvested.
Serum iron (Abcam), hepcidin (Intrinsic Lifescience) and IL-6 levels (eBioscience) were measured using commercial ELISA kits, as per manufacturers instructions.
Non-heme iron content in tissue was measured using the method described in published literature with slight modifications (60). Briefly, tissues were accurately weighed, finely cut and placed for 20 hours at 65° C. in a solution of 3M HCl/0.61 M trichloroacetic acid. After cooling to room temperature, the acid extract was spun at 12,000 rpm to collect the supernatant. 0.1 mL of the supernatant was incubated with chromogen solution (1.86 mM bathophenanthroline sulfonate/143 mM thioglycollic acid) for 20 minutes, and OD was measured at 535 nm. A standard curve was generated using an iron standard solution (Ricca Iron AA standard) against water as the blank. Non-heme iron content (μg/g) was calculated using the equation described (60).
We measured the serum iron and non-heme iron content in the kidney, spleen and liver of sham, untreated and hepcidin injected HAMP^−/− mice after IRI.

[2] = test system: hepcidin knockout mice (HAMP−/−); test: Mild renal IRI in HAMP-/- mice: 4-HNE staining and immunofluorescence of neutrophils and CD11b cells; assay type: in vivo; details: for kidney 4-HNE immunoreactivity: hepcidin reconstituted HAMP-/- IRI, FIG. 8c; for kidney neutrophil and CD11b cell infiltration: hepcidin reconstitution in HAMP-/- IRI mice, FIGS. 8e and g
Procedure: as §1
Kidney sections were embedded in paraffin, 3 μm sectioned, and stained for 4 Hydroxynonenal (4-HNE) using standard protocols. Briefly sections were deparaffanized in xylenes, rehydrated in a series of ethanol rinses from 100% to 70% ethanol, then washed in distilled water. Sections were then incubated in 3% H2O2 in methanol for 20 minutes. After treating with Avidin and Biotin for 15 minutes each (Vector) the sections were blocked in blocking buffer containing 10% donkey serum in sodium phosphate buffer (NaPO4 buffer), at room temperature for 30 minutes. 4-HNE antibody was diluted in 1% BSA in NaPO4 buffer (Abcam; 1:1000) and added to sections overnight at 4° C. Sections were washed 3 times with NaPO4 buffer for 5 minutes each and incubated with biotinylated donkey anti-goat secondary antibody (Vector) for 1 hour. Sections were washed 3 times in NaPO4 buffer, and then incubated in ABC ready-to-use reagent (Vector Labs) for 30 minutes. After another 3 washes with NaPO4 buffer the sections exposed to diaminobenzidine (DAB) for 5 minutes followed by washing with in distilled water. The sections were counter-stained with 1% methylene blue solution, washed in water and dehydrated with xylene. Sections were imaged by using a Zeiss Axio Imager Z2/Apotome Microscope fitted with motorized focus drives and motorized XYZ microscope stage and integrated to a workstation running StereoInvestigator software, version 10.51 (MBF Bioscience, Williston, Vt.) […]

[3] = test system: iron loaded bone marrow macrophages; details: hepcidin pretreatment; cited from earlier work

Mouse hepcidin 25 (DTNFPICIFCCKCCNNSQCGICCKT; listed as Mus musculus)
Annexin V/PI positive cells (apoptosis/necrosis) (TKPTS cells): significantly lower Annexin V/PI staining compared to untreated cells; also recorded: reduced to levels seen under normoxia
kidney 4-HNE immunoreactivity (oxidative stress) (C57BL/6 mice): reduced the reactivity to 4 HNE; also recorded: markedly reduced
kidney 4-HNE immunoreactivity (oxidative stress) (C57BL/6 mice; listed as hepcidin): far less 4-HNE immunoreactivity
serum iron [1]: significantly reduced serum iron
serum iron ([1]; listed as hepcidin): significantly lowered serum iron
liver non-heme iron content [1]: significantly higher non-heme iron
liver non-heme iron content ([1]; listed as hepcidin): significantly higher than the untreated
splenic iron content by Prussian blue staining ([1]; hepcidin-treated HAMP-/- mice): qualitative increases in splenic iron content
non-heme iron content of the spleen and kidneys ([1]; sham, untreated and hepcidin injected HAMP-/- mice after IRI (data not shown)): could not detect quantitative differences
kidney 4-HNE immunoreactivity [2]: little reactivity to 4 HNE
kidney 4-HNE immunoreactivity ([2]; listed as hepcidin): far less immunoreactivity to 4-HNE
kidney neutrophil and CD11b cell infiltration [2]: dramatically reduced
kidney neutrophil and CD11b cell infiltration ([2]; listed as hepcidin): almost completely prevented kidney injury-associated neutrophil or CD11b cell infiltration
LPS-induced IL-6 and TNF alpha production [3]: reduced LPS-induced IL-6 and TNF alpha production

Reference: patent US11020457B2, “Compositions and methods for protecting the kidney from ischemia reperfusion injury” (University of Virginia Patent Foundation, priority 2013, dated 2021)
